According to ChEMBL document CHEMBL4049396, “Enzymatic and solid-phase synthesis of new donepezil-based L- and d-glutamic acid derivatives and their pharmacological evaluation in models related to Alzheimer's disease and cerebral ischemia” (Eur J Med Chem, 2017):
The source made the active and inactive calls. No cut-off for these calls is given here.

Legend:
SH-SY5Y [1] = test: Neuroprotective activity against rotenone/oligomycin A-induced mitochondrial oxidative stress in human SH-SY5Y cells assessed as cell survival at 0.3 uM pretreated for 24 hrs followed by rotenone/oligomycin A challenge measured after 24 hrs by MTT assay relative to control; assay type: functional; details: read-out: Survival
SH-SY5Y [2] = test: Cytotoxicity against human SH-SY5Y cells at 0.3 uM after 24 hrs by MTT assay; assay type: cell-based
Cholinesterase = Cholinesterase (Homo sapiens, UniProt P06276); test: Inhibition of human serum BuChE using butyrylthiocholine iodide as substrate pretreated for 5 mins followed by substrate addition measured for 5 mins by UV-Vis spectrophotometric method
SH-SY5Y [3] = test: Neuroprotective activity against oxygen glucose deprivation/re-oxygenation-induced mitochondrial oxidative stress in human SH-SY5Y cells assessed as cell survival at 0.3 uM pretreated for 24 hrs followed by 4 hrs incubation under oxygen glucose deprivation medium and subsequent exposure to normoxic condition by MTT assay relative to control; assay type: functional; details: read-out: Survival
[4] = Antioxidant activity assessed as oxygen radical absorbance capacity at 10 uM; assay type: functional
physchem = details: PAMPA, pH 7.4
Description: Permeability of the compound at pH 7.4 at 1 mg/ml after 4 hrs by PAMPA-BBB assay

Acetylcholinesterase = Acetylcholinesterase (Homo sapiens, UniProt P22303); test: Inhibition of recombinant human AChE expressed in HEK293 cells using acetylthiocholine iodide as substrate pretreated for 5 mins followed by substrate addition measured for 5 mins by UV-Vis spectrophotometric method
[5] = Antioxidant activity assessed as oxygen radical absorbance capacity at 10 uM relative to trolox; assay type: functional
Hippocampus [6] = test: Neuroprotective activity in oxygen glucose deprivation/re-oxygenation-induced Sprague-Dawley rat hippocampal slice cerebral ischemia model assessed as cell viability at 3 uM incubated for 2 hrs under normoxic condition by MTT assay (reference value: 40%); assay type: functional
[7] = biological target: T1, Voltage-gated L-type calcium channel (Homo sapiens, UniProt Q13936+Q13698+Q01668+O60840); test: Inhibition of L-type voltage dependent calcium channel in human SH-SY5Y cells assessed as reduction in K+-induced cytosolic free calcium transient current at 100 uM preincubated for 15 mins followed by potassium challenge measured for 14 secs by Fluo-4AM dye based fluorescence assay relative to control; assay type: cell-based; details: 14 s
Hippocampus [8] = test: Neuroprotective activity in oxygen glucose deprivation/re-oxygenation-induced Sprague-Dawley rat hippocampal slice cerebral ischemia model assessed as cell viability at 1 uM incubated for 2 hrs under normoxic condition by MTT assay (reference value: 40%); assay type: functional
Homo sapiens = organism: Homo sapiens; test: Ratio of IC50 for recombinant human AChE expressed in HEK293 cells to IC50 for human serum BuChE; assay type: cell-based
Hippocampus [9] = test: Neuroprotective activity in oxygen glucose deprivation/re-oxygenation-induced Sprague-Dawley rat hippocampal slice cerebral ischemia model assessed as increase in cell viability incubated for 2 hrs under normoxic condition by MTT assay; assay type: functional, tissue-based
[10] = biological target: T1, Voltage-gated L-type calcium channel; test: Inhibition of L-type voltage dependent calcium channel in human SH-SY5Y cells assessed as reduction in K+-induced cytosolic free calcium transient current preincubated for 15 mins followed by potassium challenge measured for 14 secs by Fluo-4AM dye based fluorescence assay; assay type: cell-based
Bos taurus [11] = organism: Bos taurus; test: Inhibition of L-type voltage dependent calcium channel in bovine Chromaffin cells assessed as reduction in K+-induced calcium current amplitude at 10 uM preincubated for 5 mins followed by potassium challenge measured by Fluo-4AM dye based fluorescence assay relative to control; assay type: cell-based
Bos taurus [12] = organism: Bos taurus; test: Inhibition of L-type voltage dependent calcium channel in bovine Chromaffin cells assessed as reduction in K+-induced calcium transient current area at 10 uM preincubated for 5 mins followed by potassium challenge measured by Fluo-4AM dye based fluorescence assay relative to control; assay type: cell-based
[13] = Inhibition of L-type voltage dependent calcium channel in bovine Chromaffin cells assessed as reduction in K+-induced cytosolic free calcium transient current preincubated for 5 mins followed by potassium challenge measured by Fluo-4AM dye based fluorescence assay; assay type: cell-based; details: Bos taurus

Chain of Acetylcholinesterase (P22303 whole entry): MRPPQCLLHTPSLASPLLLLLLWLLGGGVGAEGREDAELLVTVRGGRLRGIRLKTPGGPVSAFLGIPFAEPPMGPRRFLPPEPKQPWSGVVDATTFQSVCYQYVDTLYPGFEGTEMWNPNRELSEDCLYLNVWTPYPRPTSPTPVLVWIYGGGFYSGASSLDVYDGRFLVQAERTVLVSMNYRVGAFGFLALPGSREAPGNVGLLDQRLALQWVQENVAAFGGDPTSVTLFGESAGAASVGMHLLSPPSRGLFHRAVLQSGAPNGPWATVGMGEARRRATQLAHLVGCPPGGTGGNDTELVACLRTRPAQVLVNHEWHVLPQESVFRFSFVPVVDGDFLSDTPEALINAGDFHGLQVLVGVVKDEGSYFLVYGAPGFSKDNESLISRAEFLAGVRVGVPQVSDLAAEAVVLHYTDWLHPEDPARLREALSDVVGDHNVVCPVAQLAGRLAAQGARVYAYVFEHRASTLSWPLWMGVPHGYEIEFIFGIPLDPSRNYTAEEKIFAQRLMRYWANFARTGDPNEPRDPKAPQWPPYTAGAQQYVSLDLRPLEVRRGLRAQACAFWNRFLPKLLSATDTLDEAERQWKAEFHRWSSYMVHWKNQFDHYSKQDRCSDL
Chain of Cholinesterase (P06276 whole entry): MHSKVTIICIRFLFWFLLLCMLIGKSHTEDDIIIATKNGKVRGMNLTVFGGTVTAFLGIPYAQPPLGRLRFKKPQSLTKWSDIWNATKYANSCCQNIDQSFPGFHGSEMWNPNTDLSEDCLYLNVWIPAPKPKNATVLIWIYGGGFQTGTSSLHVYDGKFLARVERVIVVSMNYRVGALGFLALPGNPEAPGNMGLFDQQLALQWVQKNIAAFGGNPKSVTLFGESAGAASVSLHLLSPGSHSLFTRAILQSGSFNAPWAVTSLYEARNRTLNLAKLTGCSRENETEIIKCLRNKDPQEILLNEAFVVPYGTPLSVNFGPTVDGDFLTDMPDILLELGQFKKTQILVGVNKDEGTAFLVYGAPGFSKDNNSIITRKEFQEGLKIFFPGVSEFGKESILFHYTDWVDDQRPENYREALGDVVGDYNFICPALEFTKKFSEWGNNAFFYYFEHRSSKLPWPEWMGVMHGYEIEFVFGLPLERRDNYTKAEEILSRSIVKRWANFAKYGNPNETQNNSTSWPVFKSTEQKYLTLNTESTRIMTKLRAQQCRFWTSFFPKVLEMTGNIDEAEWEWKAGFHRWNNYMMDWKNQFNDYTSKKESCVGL

| SMILES | viability at 0.3 µM (SH-SY5Y [1]) | Activity (SH-SY5Y [2]) | IC50 (Cholinesterase) | viability at 0.3 µM (SH-SY5Y [3]) | Activity [4] | Papp at 4 h, 1 mg/ml (physchem) | IC50 (Acetylcholinesterase) | Activity [5] | Activity (Hippocampus [6]) | %max [7] | Activity (Hippocampus [8]) | Ratio IC50 (Homo sapiens) | Activity (Hippocampus [9]) | IC50 [10] | inhibition (Bos taurus [11]) | inhibition (Bos taurus [12]) | IC50 [13] |
| --- | --- | --- | --- | --- | --- | --- | --- | --- | --- | --- | --- | --- | --- | --- | --- | --- | --- |
| O=C(CC[C@@H](NC(=O)c1ccccc1)C(=O)O)NCCC1CCN(Cc2ccccc2)CC1 | 22.6% | Non-Toxic | 82 µM | 38.5% | inactive | 4.6 ×10⁻⁶ cm/s | 20 µM | – | – | – | – | – | – | – | – | – | – |
| COc1ccc2cc(C(=O)N[C@@H](CCC(=O)NCCC3CCN(Cc4ccccc4)CC3)C(=O)O)ccc2c1 | 35% | Non-Toxic | 97 µM | 45% | inactive | – | 15.2 µM | – | – | – | – | – | – | – | – | – | – |
| CCCCCCOC(=O)[C@H](CCC(=O)NCCC1CCN(Cc2ccccc2)CC1)NC(=O)c1c[nH]c2ccccc12 | 22.1% | Non-Toxic | 1.85 µM | 31.8% | – | 9.6 ×10⁻⁶ cm/s | 3.04 µM | 70 to 73% | – | – | – | – | – | – | – | – | – |
| CCOC(=O)[C@@H](CCC(=O)NCCC1CCN(Cc2ccccc2)CC1)NC(=O)c1ccccc1 | 15.1% | Non-Toxic | 0.39 µM | 39.8% | inactive | 6.6 ×10⁻⁶ cm/s | 0.5 µM | – | – | – | – | – | – | – | – | – | – |
| CCOC(=O)CC[C@H](NC(=O)OCc1ccccc1)C(=O)NCCC1CCN(Cc2ccccc2)CC1 | 35.2% | Non-Toxic | 0.4 µM | 42.7% | inactive | 21 ×10⁻⁶ cm/s | 4.99 µM | – | 69% | 63% | 48% | 10 | Dose-dependent effect | 90.1 µM | – | – | – |
| CCOC(=O)[C@H](CCC(=O)NCCC1CCN(Cc2ccccc2)CC1)NC(=O)c1c[nH]c2ccccc12 | 39.5% | Non-Toxic | 0.3 µM | 42.4% | – | 4.5 ×10⁻⁶ cm/s | 1.9 µM | 70 to 73% | – | – | – | – | – | – | – | – | – |
| CCOC(=O)[C@H](CCC(=O)NCCC1CCN(Cc2ccccc2)CC1)NC(=O)c1ccccc1 | 38.6% | Non-Toxic | 1.3 µM | 50.9% | inactive | 5.2 ×10⁻⁶ cm/s | 0.85 µM | – | – | – | – | – | – | – | – | – | – |
| CCOC(=O)CC[C@@H](NC(=O)OCc1ccccc1)C(=O)OCC | 34.7% | Non-Toxic | > 10 µM | 47.1% | inactive | – | > 10 µM | – | – | – | – | – | – | – | – | – | – |
| COc1ccc2[nH]cc(CCNC(C)=O)c2c1 [MELATONIN] | 33.4% | – | – | 31.4% | – | – | – | – | – | – | – | – | – | – | – | – | – |
| CCOC(=O)CC[C@@H](NC(=O)OCc1ccccc1)C(=O)NCCC1CCN(Cc2ccccc2)CC1 | 31.6% | Non-Toxic | 0.17 µM | 47% | inactive | 16.7 ×10⁻⁶ cm/s | 3 µM | – | – | – | – | 10 | – | – | – | – | – |
| CCCCCCOC(=O)[C@H](CCC(=O)NCCC1CCN(Cc2ccccc2)CC1)NC(=O)c1ccccc1 | 44.1% | Non-Toxic | – | 53.4% | inactive | – | – | – | 55% | – | – | – | – | 14.1 µM | 40% | 80% | 5.31 µM |
| CCOC(=O)[C@H](CCC(=O)NCCC1CCN(Cc2ccccc2)CC1)NC(=O)c1ccc2cc(OC)ccc2c1 | 25.3% | Non-Toxic | 3.8 µM | 37.7% | inactive | 8.3 ×10⁻⁶ cm/s | 0.89 µM | – | – | – | – | – | – | – | – | – | – |
| O=C(CC[C@H](NC(=O)c1c[nH]c2ccccc12)C(=O)O)NCCC1CCN(Cc2ccccc2)CC1 | 34.6% | Non-Toxic | 71 µM | 48.4% | – | 1.8 ×10⁻⁶ cm/s | 6.4 µM | 70 to 73% | – | – | – | – | – | – | – | – | – |
| CCOC(=O)CC[C@H](NC(=O)OCc1ccccc1)C(=O)OCC | 37.3% | Non-Toxic | > 10 µM | 51.6% | inactive | – | > 10 µM | – | – | – | – | – | – | – | – | – | – |
| CCCCCCOC(=O)[C@@H](CCC(=O)NCCC1CCN(Cc2ccccc2)CC1)NC(=O)c1ccccc1 | 13% | Non-Toxic | 0.36 µM | 32.2% | inactive | 13.9 ×10⁻⁶ cm/s | 0.89 µM | – | – | – | – | – | – | – | – | – | – |
| O=C(CC[C@H](NC(=O)c1ccccc1)C(=O)O)NCCC1CCN(Cc2ccccc2)CC1 | 46.5% | Non-Toxic | > 10 µM | 50.6% | inactive | 3.5 ×10⁻⁶ cm/s | 0.76 µM | – | – | – | – | – | – | – | – | – | – |
